Data published in PMC10673369, “Preliminary SAR of Novel Pleuromutilin–Polyamine Conjugates” (Microorganisms, 2023).
In brackets after ≈: the same amount, converted by molar mass.

Tests used:
[1] = system: C. neoformans ATCC 208821; assay: MIC, CO-ADD antifungal assay, C. neoformans; assay type: cell-based, Cryptococcus neoformans; conditions: for MIC: Cryptococcus neoformans, ATCC208821, mean (n = 2)
Experimental: (§1) The susceptibility of bacterial strains S. aureus (ATCC 25923), E. coli (ATCC 25922), and P. aeruginosa (ATCC 27853 or PAO1) to antibiotics and compounds was determined using reported protocols. Additional antimicrobial evaluation against MRSA (ATCC 43300), Klebsiella pneumoniae (ATCC 700603), A. baumannii (ATCC 19606), Candida albicans (ATCC 90028), and Cryptococcus neoformans (ATCC 208821) was undertaken at the Community for Open Antimicrobial Drug Discovery at The University of Queensland (Australia) according to their standard protocols as reported previously. […]
(§2) 2.3. Antimicrobial Assays
The susceptibility of bacterial strains S. aureus (ATCC 25923), E. coli (ATCC 25922), and P. […]
(§3) baumannii (ATCC 19606), Candida albicans (ATCC 90028), and Cryptococcus neoformans (ATCC 208821) was undertaken at the Community for Open Antimicrobial Drug Discovery at The University of Queensland (Australia) according to their standard protocols as reported previously. […]
For the antifungal assay, fungi strains were cultured for 3 days on YPD agar at 30 °C. A yeast suspension of 1 × 106 to 5 × 10^6 CFU/mL was prepared from five colonies. These stock suspensions were diluted with yeast nitrogen base (YNB) (Becton Dickinson, 233520) broth to a final concentration of 2.5 × 10^3 CFU/mL. The compounds were serially diluted 2-fold across the wells of 96-well plates (Corning 3641, non-binding surface), with compound concentrations ranging from 0.015 to 64 µg/mL and final volumes of 50 µL, plated in duplicate. Then, 50 µL of the fungi suspension that was previously prepared in YNB broth to the final concentration of 2.5 × 10^3 CFU/mL was added to each well of the compound-containing plates, giving a final compound concentration range of 0.008 to 32 µg/mL. Plates were covered and incubated at 35 °C for 36 h without shaking. C. albicans MICs were determined by measuring the absorbance at OD530. For C. neoformans, resazurin was added at 0.006% final concentration to each well and incubated for a further 3 h before MICs were determined by measuring […]
(§4) Colistin and vancomycin were used as positive bacterial inhibitor standards for Gram-negative and Gram-positive bacteria, respectively. Fluconazole was used as a positive fungal inhibitor standard for C. albicans and C. neoformans. The antibiotics were provided in […], with 3 above and 3 below its MIC value, and plated into the first 8 wells of column 23 of the 384-well NBS plates. The quality control (QC) of the assays was determined by the antimicrobial controls and the Z'-factor (using positive and negative controls). Each plate was deemed to fulfil the quality criteria (pass QC) if the Z'- […]
(§5) inhibition at their highest concentration, and no growth inhibition at their lowest concentration.
(§6) 2.4. Determination of the MICs of Antibiotics in the Presence of Synergizing Compounds

P. aeruginosa ATCC 27853 = assay: Antibiotic enhancement of doxycycline; assay type: cell-based; conditions: for Dox/P.a.: concentration required to restore doxycycline activity: doxycycline at 4.5 µM (2 µg/mL); for Dox/P.a.: fold change, ratio between intrinsic MIC of test compound and combination MIC: doxycycline at 4.5 µM
Experimental: Antibiotic restoring enhancer concentrations were determined using reported protocols (see Supplementary File).
Briefly, restoring enhancer concentrations were determined with an inoculum of 5x10^5 CFU in 200
µL of MHB containing two-fold serial dilutions of each derivative in the presence of doxycycline at 4.5
The lowest concentration of the polyamine
These measurements were independently repeated in triplicate. […]

E. coli ATCC 25922 = assay: MIC, broth dilution, E. coli; assay type: cell-based, Escherichia coli; conditions: for MIC: Escherichia coli, ATCC25922, mean (n = 3)
Experimental: as §1, §2
(§7) The susceptibility of bacterial strains S. aureus (ATCC 25923), E. coli (ATCC 25922), and P. aeruginosa (ATCC 27853 or PAO1) to antibiotics and compounds was determined in microplates using the standard broth dilution method in accordance with the recommendations of the Comité de l’AntibioGramme de la Société Française de Microbiologie (CA-SFM). Briefly, the minimal inhibitory concentrations (MICs) were determined with an inoculum of 10^5 CFU in 200 µL of Mueller–Hinton broth (MHB) containing two-fold serial dilutions of each drug. The MIC was defined as the lowest […]
as §3, with “determine all MICs, the measurements were independently repeated in triplicate. Additional antimicrobial evaluation against MRSA (ATCC 43300), Klebsiella pneumoniae (ATCC 700603), A. baumannii” for “baumannii”

[2] = Cytotoxicity assay, HEK293; assay type: cell-based; conditions: human; HEK293 cells; mean (n = 2); read-out: Cytotoxicity (IC50), concentration of compound at 50% cytotoxicity
Experimental: Cytotoxicity assays were conducted using reported protocols (see Supplementary File). […]
HEK293 cells were counted manually in a Neubauer hemocytometer and plated at a density of 5,000 cells/well into each well of the 384-well plates containing the 25x (2 µL) concentrated compounds [26,27]. The medium used was Dulbecco's modified Eagle’s medium (DMEM), supplemented with 10% fetal bovine serum (FBS). Cells were incubated together with the compounds for 20 h at 37 °C, 5% CO2.
To measure cytotoxicity, 5 µL (equals 100 µM final) of resazurin was added to each well after incubation and incubated for further 3 h at 37 °C with 5% CO2. After the final incubation, fluorescence intensity […]
reader. CC50 values (concentration at 50% cytotoxicity) were calculated by normalizing the fluorescence readout, with 74 µg/mL tamoxifen as negative control (0%) and normal cell growth as positive control (100%). The concentration-dependent percentage cytotoxicity was fitted to a dose–response function (using Pipeline Pilot) and CC50 values were determined. […]

P. aeruginosa PAO1 = assay: MIC, broth dilution, P. aeruginosa PAO1; assay type: cell-based; conditions: mean (n = 3); for MIC: Pseudomonas aeruginosa
Experimental: as §1, §2, §7
as §3, with “determine all MICs, the measurements were independently repeated in triplicate. Additional antimicrobial evaluation against MRSA (ATCC 43300), Klebsiella pneumoniae (ATCC 700603), A. baumannii” for “baumannii”
(§8) For C. neoformans, resazurin was added at 0.006% final concentration to each well and incubated for a further 3 h before MICs were determined by measuring […]
as §4, §5, §6

S. aureus ATCC 25923 = assay: MIC, broth dilution, S. aureus; assay type: cell-based; conditions: Staphylococcus aureus, ATCC25923, mean (n = 3)
Experimental: as §1, §2, §7
as §3, with “determine all MICs, the measurements were independently repeated in triplicate. Additional antimicrobial evaluation against MRSA (ATCC 43300), Klebsiella pneumoniae (ATCC 700603), A. baumannii” for “baumannii”
as §8, §4, §5, §6

Row | SMILES | MIC [1] | MIC C.n. ([1]; mean (n = 2)) | Dox/P.a.: concentration required to restore doxycycline activity (P. aeruginosa ATCC 27853) | MIC (E. coli ATCC 25922) | MIC E.c. (E. coli ATCC 25922; mean (n = 3)) | IC50 at 20 h [2] | MIC (P. aeruginosa PAO1) | MIC P.a. (P. aeruginosa PAO1) | MIC (S. aureus ATCC 25923) | Dox/P.a.: fold change, ratio between intrinsic MIC of test compound and combination MIC (P. aeruginosa ATCC 27853)
1 | C=C[C@]1(C)C[C@@H](OC(=O)CSCCN(CC)CC)[C@]2(C)[C@H](C)CC[C@]3(CCC(=O)[C@H]32)[C@@H](C)[C@@H]1O [Compound 2, Tiamulin, reference compound] | > 64.8 µM | no activity | > 405 µM | 200 µM (≈ 98.8 µg/mL) | no activity | > 64.8 µM | 800 µM | no activity | 3.12 µM | –
2 | C=C[C@]1(C)C[C@@H](OC(=O)CNCCCNCCCCNCCCNCC(=O)O[C@@H]2C[C@@](C)(C=C)[C@@H](O)[C@H](C)[C@]34CCC(=O)[C@H]3[C@@]2(C)[C@H](C)CC4)[C@]2(C)[C@H](C)CC[C@]3(CCC(=O)[C@H]32)[C@@H](C)[C@@H]1O.O=C(O)C(F)(F)F.O=C(O)C(F)(F)F.O=C(O)C(F)(F)F.O=C(O)C(F)(F)F [Compound 9a, N^1,N^1′-(Butane-1,4-diyl)bis(N^3-(2-(((3aR,4R,5R,7S,8S,9R,9aS,12R)-8-hydroxy-4,7,9,12-tetramethyl-3-oxo-7-vinyldecahydro-4,9a-propanocyclopenta [8]annulen-5-yl)oxy)-2-oxoethyl)propane-1,3-diaminium) 2,2,2-trifluoroacetate] | 0.72 µM | – | 18.1 µM | 18.1 µM | – | > 23.2 µM | 72.5 µM | – | 18.1 µM | 4
3 | C=C[C@]1(C)C[C@@H](OC(=O)CNCCCNCCCCCCNCCCNCC(=O)O[C@@H]2C[C@@](C)(C=C)[C@@H](O)[C@H](C)[C@]34CCC(=O)[C@H]3[C@@]2(C)[C@H](C)CC4)[C@]2(C)[C@H](C)CC[C@]3(CCC(=O)[C@H]32)[C@@H](C)[C@@H]1O.O=C(O)C(F)(F)F.O=C(O)C(F)(F)F.O=C(O)C(F)(F)F.O=C(O)C(F)(F)F [Compound 9b, N^1,N^1′-(Hexane-1,6-diyl)bis(N^3-(2-(((3aR,4R,5R,7S,8S,9R,9aS,12R)-8-hydroxy-4,7,9,12-tetramethyl-3-oxo-7-vinyldecahydro-4,9a-propanocyclopenta [8]annulen-5-yl)oxy)-2-oxoethyl)propane-1,3-diaminium) 2,2,2-trifluoroacetate] | ≤ 0.18 µM | – | 35.5 µM | 8.88 µM | – | > 22.7 µM | 142 µM | – | 17.8 µM | 4
4 | C=C[C@]1(C)C[C@@H](OC(=O)CNCCCNCCCCCCCNCCCNCC(=O)O[C@@H]2C[C@@](C)(C=C)[C@@H](O)[C@H](C)[C@]34CCC(=O)[C@H]3[C@@]2(C)[C@H](C)CC4)[C@]2(C)[C@H](C)CC[C@]3(CCC(=O)[C@H]32)[C@@H](C)[C@@H]1O.O=C(O)C(F)(F)F.O=C(O)C(F)(F)F.O=C(O)C(F)(F)F.O=C(O)C(F)(F)F [Compound 9c, N^1,N^1′-(Heptane-1,7-diyl)bis(N^3-(2-(((3aR,4R,5R,7S,8S,9R,9aS,12R)-8-hydroxy-4,7,9,12-tetramethyl-3-oxo-7-vinyldecahydro-4,9a-propanocyclopenta [8]annulen-5-yl)oxy)-2-oxoethyl)propane-1,3-diaminium) 2,2,2-trifluoroacetate] | ≤ 0.18 µM | – | 141 µM | 35.2 µM | – | > 22.5 µM | > 141 µM | – | 17.6 µM | 1
5 | C=C[C@]1(C)C[C@@H](OC(=O)CNCCCNCCCCCCCCNCCCNCC(=O)O[C@@H]2C[C@@](C)(C=C)[C@@H](O)[C@H](C)[C@]34CCC(=O)[C@H]3[C@@]2(C)[C@H](C)CC4)[C@]2(C)[C@H](C)CC[C@]3(CCC(=O)[C@H]32)[C@@H](C)[C@@H]1O.O=C(O)C(F)(F)F.O=C(O)C(F)(F)F.O=C(O)C(F)(F)F.O=C(O)C(F)(F)F [Compound 9d, N^1,N^1′-(Octane-1,8-diyl)bis(N^3-(2-(((3aR,4R,5R,7S,8S,9R,9aS,12R)-8-hydroxy-4,7,9,12-tetramethyl-3-oxo-7-vinyldecahydro-4,9a-propanocyclopenta [8]annulen-5-yl)oxy)-2-oxoethyl)propane-1,3-diaminium) 2,2,2-trifluoroacetate] | ≤ 0.17 µM | – | 139 µM | 70 µM | – | > 22.3 µM | > 139 µM | – | 34.8 µM | 1
6 | C=C[C@]1(C)C[C@@H](OC(=O)CNCCCNCCCCCCCCCCNCCCNCC(=O)O[C@@H]2C[C@@](C)(C=C)[C@@H](O)[C@H](C)[C@]34CCC(=O)[C@H]3[C@@]2(C)[C@H](C)CC4)[C@]2(C)[C@H](C)CC[C@]3(CCC(=O)[C@H]32)[C@@H](C)[C@@H]1O.O=C(O)C(F)(F)F.O=C(O)C(F)(F)F.O=C(O)C(F)(F)F.O=C(O)C(F)(F)F [Compound 9e, N^1,N^1′-(Decane-1,10-diyl)bis(N^3-(2-(((3aR,4R,5R,7S,8S,9R,9aS,12R)-8-hydroxy-4,7,9,12-tetramethyl-3-oxo-7-vinyldecahydro-4,9a-propanocyclopenta [8]annulen-5-yl)oxy)-2-oxoethyl)propane-1,3-diaminium) 2,2,2-trifluoroacetate] | ≤ 0.17 µM | – | 34.2 µM | 4.27 µM | – | > 21.9 µM | > 88 µM | – | 4.27 µM | 2
